Data from ChEMBL document CHEMBL1201862, “PubChem BioAssay data set” (2004).
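Cells were grown in 96-well plates and exposed to each compound for 48 hours at five concentrations; endpoints were interpolated linearly between bracketing concentrations, or set to the highest concentration if not reached. GI50: concentration for 50% inhibition of growth.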 The source made the active and inactive calls. No stated cut-off is given here; in the data, active = GI50 up to about 1.1 µM and inactive = higher.

What was measured:
Assay in all cases: inhibition of tumour cell growth, NCI panel, 48 h
786-0 = system: 786-0
A549 = system: A549
CAKI-1 = system: CAKI-1
COLO 205 = system: COLO 205
HCT-116 = system: HCT-116
HCT-15 = system: HCT-15
HT-29 = system: HT-29
LOX IMVI = system: LOX IMVI
MDA-MB-231 = system: MDA-MB-231
MDA-MB-435 = system: MDA-MB-435
MDA-N = system: MDA-N
NCI-H226 = system: NCI-H226
NCI-H23 = system: NCI-H23
NCI/ADR-RES = system: NCI/ADR-RES
SK-MEL-2 = system: SK-MEL-2
SNB-75 = system: SNB-75
SW-620 = system: SW-620
U-251 = system: U-251
UO-31 = system: UO-31
A498 = system: A498

| Structure (SMILES) | GI50 (786-0) | GI50 (A549) | GI50 (CAKI-1) | GI50 (COLO 205) | GI50 (HCT-116) | GI50 (HCT-15) | GI50 (HT-29) | GI50 (LOX IMVI) | GI50 (MDA-MB-231) | GI50 (MDA-MB-435) | GI50 (MDA-N) | GI50 (NCI-H226) | GI50 (NCI-H23) | GI50 (NCI/ADR-RES) | GI50 (SK-MEL-2) | GI50 (SNB-75) | GI50 (SW-620) | GI50 (U-251) | GI50 (UO-31) | GI50 (A498) |
| --- | --- | --- | --- | --- | --- | --- | --- | --- | --- | --- | --- | --- | --- | --- | --- | --- | --- | --- | --- | --- |
| COc1ccc(NC(=S)c2ccoc2C)cc1CC(=O)OC(C)C | > 100 µM (inactive) | 26.4 µM (inactive) | 29.2 µM (inactive) | 17.7 µM (inactive) | 55.8 µM (inactive) | 55.2 µM | 16.7 µM (inactive) | 18.8 µM (inactive) | 81.5 µM (inactive) | 46.2 µM (inactive) | 31 µM (inactive) | 12.4 µM (inactive) | 46.2 µM (inactive) | 17.5 µM (inactive) | 18.2 µM (inactive) | 15.7 µM (inactive) | 36.1 µM (inactive) | 67 µM (inactive) | 30.6 µM (inactive) |  |
| Cc1nc2ccccc2c(=O)n1NC(=O)c1ccc([N+](=O)[O-])cc1 | > 100 µM (inactive) | > 100 µM (inactive) |  | > 100 µM (inactive) | > 100 µM (inactive) |  | > 100 µM (inactive) | > 100 µM (inactive) | > 100 µM (inactive) | > 100 µM (inactive) | > 100 µM (inactive) | > 100 µM (inactive) | > 100 µM (inactive) |  |  | > 100 µM (inactive) | > 100 µM (inactive) | > 100 µM (inactive) | > 100 µM (inactive) | 56.4 µM (inactive) |
| c1ccc(-c2cc(-c3ccccc3)nc(-c3ccncc3)c2)cc1 | 18 µM (inactive) | > 100 µM (inactive) | > 100 µM (inactive) | > 100 µM (inactive) | 48.8 µM (inactive) | > 100 µM |  | > 100 µM (inactive) | 97.5 µM (inactive) | > 100 µM (inactive) | > 100 µM (inactive) | 58.5 µM (inactive) | 91.4 µM (inactive) | > 100 µM (inactive) | > 100 µM (inactive) |  | > 100 µM (inactive) | 37.6 µM (inactive) | > 100 µM (inactive) |  |
| CCOC(=O)C(NC(=O)c1cccc(Cl)c1)(Nc1cccc(C)c1)C(F)(F)F (centres undefined) | 23.3 µM (inactive) | 32 µM (inactive) | 20.7 µM (inactive) | 20.1 µM (inactive) | 19.1 µM (inactive) | 16.7 µM | 13.3 µM (inactive) | 15.3 µM (inactive) | 19.4 µM (inactive) | 19.6 µM (inactive) | 17.5 µM (inactive) | 14 µM (inactive) |  | 15.9 µM (inactive) | 16.3 µM (inactive) | 12.4 µM (inactive) | 16.4 µM (inactive) | 23.8 µM (inactive) | 15.1 µM (inactive) |  |
| CC(=O)O[C@H]1C(=O)[C@@]2(C)C(C(OC(=O)c3ccccc3)[C@]3(O)CC(OC(=O)C(O)C(NC(=O)c4cccc(Cl)c4)c4ccccc4)C(C)=C1C3(C)C)[C@]1(OC(C)=O)CO[C@@H]1C[C@@H]2O (some centres undefined) | 0.728 µM (active) | 0.693 µM (active) | 6.64 µM (inactive) | 0.385 µM (active) | 0.16 µM (active) | 2.62 µM | 0.269 µM (active) | 0.841 µM (active) | 1.73 µM (inactive) | 0.118 µM (active) | 0.0914 µM (active) | > 10 µM (inactive) | 1.39 µM (inactive) | 5.28 µM (inactive) | 0.656 µM (active) | 1.1 µM (active) | 0.838 µM (active) | 1.25 µM (inactive) |  |  |
| CC1C2CC(C/C2=N/O)C1(C)C (centres undefined) | > 100 µM (inactive) | > 100 µM (inactive) | > 100 µM (inactive) | > 100 µM (inactive) | > 100 µM (inactive) |  | > 100 µM (inactive) |  | > 100 µM (inactive) | > 100 µM (inactive) | > 100 µM (inactive) | > 100 µM (inactive) | > 100 µM (inactive) |  |  | > 100 µM (inactive) | > 100 µM (inactive) | > 100 µM (inactive) | > 100 µM (inactive) | > 100 µM (inactive) |
